The values below come from paper PMC10989010, “A panel of janus kinase inhibitors identified with anti-inflammatory effects protect mice from lethal influenza virus infection” (Antimicrobial Agents and Chemotherapy, 2024).

Counter-ions that a name gives are not always drawn.

In one data set the test system is U937 cells. Description: Cytotoxicity assay (CellTiter-Glo). The conditions noted are these: U937 cells; CellTiter-Glo; mean of three independent experiments. Format: cell-based, human. The procedure: The compound cytotoxicity was determined by CellTiter-Glo Assay (Promega, Madison, WI, USA). After adding 15 µL of CellTiter-Glo reagent to each well, plates were incubated at room temperature for 15 minutes with shaking. The luminescence intensity was determined by a multimode plate reader (Wallac Envision, PerkinElmer, MA, USA).
For orientation: Cellular ATP, detected with luciferase, serves as a proxy for viable cell number.

Data set [1] deals with PR8 virus. Kind of data set: Viral titers in BALF by TCID50 assay using MDCK cells. The conditions noted are these: 300 TCID50; 20 mg/kg/d; day 7 p.i.; treated versus untreated mice. The class given is in vivo. As for the experimental part:
Madin-Darby canine kidney (MDCK) cells (ATCC CCL-34™) were maintained in Dulbecco’s modified Eagle’s medium (DMEM, Gibco, Carlsbad, CA) supplemented with 10% fetal bovine serum (Gibco), 100 U/mL penicillin, and 100 µg/mL streptomycin. Human monocyte cell line U937 (CRL-1593.2) was cultured in RPMI 1640 medium supplemented with 10% fetal bovine serum (Gibco), 100 U/mL penicillin, and 100 µg/mL streptomycin. All these cells were maintained at 37℃ in a 5% CO2 incubator. […] The viral titers were measured using 50% tissue culture infective dose (TCID50) assay in MDCK cells. The 10-day-old embryonated chicken eggs were obtained from Guangdong Wens Dahuanong Biotechnology Co., Ltd (Guangdong, China). Six-week-old BALB/c mice were purchased from Guangdong Medical Laboratory Animal Center (GDMLAC, Guangdong, China) and housed under specific pathogen-free conditions.

The conditions of data set [2]: stated as reason for selection; no test or reference printed; cited from earlier work.
In data set [3] the test system is PR8 virus. Description: Neutralization assay of mouse sera. Format: in vivo, BALB/c mice. To be noted: for neutralizing antibody titer: 50 TCID50 PR8, 20 mg/kg. As for the experimental part:
The neutralization assay was performed to determine the neutralizing titers of sera obtained from mice infected with influenza virus. The procedure involved diluting the sera and subsequently heat-inactivating it at 56℃ for 30 minutes, followed by its combination with 100 TCID50 PR8 virus and incubation at 37℃ for 1 hour. The mixture was added to pre-seeded MDCK cells and incubated at 37℃ for 1 hour. Subsequently, the medium was replaced with fresh DMEM and further cultured at 37℃ for 24 hours. Virus production in the supernatant was quantified by assessing virus neuraminidase activity on a black opaque 96-well plate (PerkinElmer, 6005270) using a substrate of 20 µM 2'-(4-methylumbelliferyl)-α-D-N-acetylneuraminic acid (MUNANA, Sigma, M8639) dissolved in MES solution [33 mmol/L 2-(N-morpholino) ethanesulfonic acid and 4 mmol/L CaCl2, pH = 6.5]. The reaction mixture was then incubated at 37℃ for an additional period of 2 hours. The reaction was terminated by the addition of a stop solution (0.14 mol/L NaOH in 83% ethanol). Fluorescence intensity was measured using multimode plate readers (Varioskan Lux, Thermoscientific, USA) with an excitation wavelength of 355 nm and an emission wavelength of 485 nm. The relative virus production was determined based on the fluorescence intensity, which correlated to the cleavage of MUNANA by viral neuraminidase. The serum neutralization titer, representing the dilution fold of serum required to achieve 50% virus neutralization, was determined using Graphpad software ([47]).

The test system of data set [4] is influenza virus-specific IgG. Kind of data set: Influenza virus-specific IgG in mouse serum (ELISA). Format: in vivo, BALB/c mice. The conditions noted are these: 50 TCID50 PR8, 20 mg/kg twice daily for 5 days from 3 dpi, versus untreated. The procedure:
The PR8 virus was purified and inactivated using β-Propiolactone (CAS: 57–57-8, MCE) at a 1:3,000 (vol/vol) ratio. The inactivated PR8 virus (2 µg in each well) was then coated onto a 96-well ELISA plate (Corning, USA) and left overnight at 4℃. Afterward, the plate was washed three times and blocked with 5% skimmed milk for 1 hour at 37℃. The plate was washed again three times and then incubated with 100 µL of serial diluted sera at 37 ℃ for 2 hours. Next, the plate was washed three times and incubated with 100 µL of 1,000-fold diluted (horseradish peroxidase) HRP-conjugated affinipure goat ant-mouse IgG (H + L; SA00001-1, Proteintech) at 37℃ for 1 hour. After washing the plate four times, 100 µL of TMB (3, 3', 5, 5'-tetramethylbenzidine) substrate was added to each well until the solutions turned blue, and then 50 µL of 2M H2SO4 was added to stop the reaction. Finally, the absorbance was read at OD450 nm using the Varioskan LUX multimode microplate reader (Thermo Scientific, Waltham, MA, USA) ([47]).
For orientation: An ELISA detects its analyte on a solid surface through an enzyme-linked reagent.

The subject of another data set is MCP1. Kind of data set: cells. Format: cell-based, human. To be noted: Homo sapiens, U-937, 72 h, read-out: IC50 MCP1.
The subject of data set [5] is TNF-α, RANTES, IP-10, IL-10, MIP-1α, IL-8, MCP-1, and IL-6. Description: ELISA of pro-inflammatory cytokines and chemokines in BALF of infected mice. Format: in vivo. The conditions noted are these: 300 TCID50; 20 mg/kg/d; day 7 p.i.; versus placebo. The procedure: Mouse IL-10 (Cat. No. 431414), IL-6 (Cat. No. 431304), and TNF-α (Cat. No. 430901) ELISA kits were obtained from BioLegend (San Diego, USA). Mouse IL-8 (CME0008), MCP-1 (CME0046), and IP-10 (CME0051) ELISA kits were purchased from 4A Biotech (Beijing, China). Mouse CCL3/MIP-1α (EK261/2-96) ELISA kit was bought from Multi Sciences (Hangzhou, China). Mouse CCL5/RANTES (BSEM-048–96T) ELISA kit was obtained from Biosharp (Hefei, China). The ELISA was conducted by following the manufacturer’s instructions.

The subject of another data set is IL-8. Kind of data set: U937 cell-based anti-inflammatory assay for influenza virus infection, IL-8 production (AlphaLISA). Also noted: species or system human. To be noted: Homo sapiens, U-937, 72 h, read-out: IC50 IL-8. The procedure: U937 cells were seeded in a 96-well culture plate at a density of 1.5 × 10^5 cells per well and incubated for 24 hours prior to virus infection. Subsequently, the cells in each well were infected with the PR8 virus at a multiplicity of infection of 0.05 and treated with serially diluted drugs or left untreated as a control. The drugs were serially diluted threefold, starting from an initial concentration of 200 µM down to 0.01 µM. […] Following this incubation, the supernatants were collected and subjected to AlphaLISA analysis to determine IL-8, IP-10, and MCP1 protein levels.
The AlphaLISA detection kits employed in this study were IL-8 (PerkinElmer AL224), IP-10 (PerkinElmer AL259), and MCP1 (PerkinElmer, AL244). U937 cell culture supernatants were measured for IL-8, IP-10, and MCP-1 protein levels using AlphaLISA assay as per the manufacturer’s recommendations. The ELISA and AlphaLISA plates were read using the Varioskan LUX multimode microplate reader (Thermo Scientiﬁc, Waltham, MA, USA).

Usually CC50 stands for the concentration that lowers cell viability or growth by half. Broadly, the IC50 is the concentration that inhibits the measured activity by half. For `CNS(=O)(=O)C[C@H]1CC[C@H](N(C)c2ncnc3[nH]ccc23)CC1` [Oclacitinib maleate], in the data set with U937 cells, the midpoint of cytotoxicity, the CC50, lay at 50000 nM. Besides, in the data set on PR8 virus [1], the “viral titers in the BALF” value is “no significant differences”. For the same molecule, in data set [2], the water solubility entry is listed as “high water solubility”. In addition, the “change in neutralization antibody titers compared to untreated mice” value with PR8 virus [3] (14 dpi) is “slight decrease”; with PR8 virus [3] (21 dpi), “no difference”. The neutralizing antibody titer in the data set with PR8 virus [3] (7 dpi) was 177; in the data set on PR8 virus [3] (14 dpi) it was 690; with PR8 virus [3] (21 dpi), 1,087. The “serum influenza virus-specific IgG production” value in data set [4] (7 dpi) is reported as “significantly suppressed”; in data set [4] (14 and 21 dpi) it was “slight suppression”. For the same molecule, the IC50 stood at 190 nM with MCP1 and 50 nM in the data set on IL-8. Further, in data set [5], the “production of all eight cytokines and chemokines (TNF-α, RANTES, IP-10, IL-10, MIP-1α, IL-8, MCP-1, IL-6) in BALF” value is listed as “significantly reduced”.
